Test results: patent US5534260A, “Percutaneous drug delivery system” (priority 1994, dated 1996)
Where “and” joins values, the source holds several entries; their conditions need not be identical. Identical values can stand only once. Entries after “also recorded” stand apart in the source; their conditions may differ. Like-named read-outs stand apart in the source and are kept apart here.

Assays:
[1] = Effect of non-enzyme components in admixture with papain on penetration of 14C-TEAB (Example IV); settings: 14C-TEAB through pretreated skin (n = 1 for components alone, n = 2 combinations, n = 3 papain 0.0465 mg/ml 24 hours)
[2] = Effect of pH on drug penetration through normal untreated hairless mouse skin (Example V A); type: in vitro ADME; settings: for P (permeability): mouse
[3] = Effect of pH on drug penetration through hairless mouse skin pretreated with papain (Example V B); type: in vitro ADME
Text: B. Effect of pH on drug penetration through hairless mouse
skin Pretreated with sigma papain of concentration 0.093

[4] = Fourier Transform Infrared spectroscopy of stratum corneum; set-up: species or system mouse; settings: for Absorbance in protein areas, peak position: Table I
Experimental: A. Comparisons of normal stratum corneum (from mouse skin) to stratum corneum treated with a 0.09% concentration of papain for 24 hours was performed using Fourier Transform Infrared spectroscopy (FTIR). […] It is postulated that a shift from a random form of protein to the more organized beta sheet structure occurs. The alpha-helix structures of skin protein could be fractionated, uncoiled, or both.
A comparison of symmetric and asymmetric CH stretch bands was then made. These two bands represent lipid structure and would show any changes in the stratum corneum lipids caused by the papain.
B. Azone™ was tested as a permeation enhancer with and without the presence of papain.

[5] = in vitro; settings: mouse
[6] = Penetration of polypeptides through papain-pretreated mouse skin, SDS-PAGE; type: in vitro ADME; settings: for fragmentation of diffused polypeptide: diffused through papain treated skin, SDS-PAGE
Text: After papain skin treatment pursuant to Example III.1 above, polypeptides were diffused through the pretreated mouse skin using the same concentration and pH values for each test. Pure buffer solution was also diffused through the pretreated skin of the mouse to determine if any endogenous proteins diffused into the diffusate.
Comparisons of solutions of non-diffused polypeptides, diffused polypeptides and diffused buffer solutions were made using gel electrophoresis. The system used for these determinations was sodium dodecyl sulfate polyacrylamide gel electrophoresis (SDS-PAGE), a procedure well-known in the art. These comparisons determined if fragmentation of the diffused polypeptide molecules occurred.
A series of polypeptides of various molecular weights were studied.

[7] = mouse
[8] = pH 5.9, sigma papain 0.093 mg/ml for 24 hours
[9] = pH 6.6, sigma papain 0.093 mg/ml for 24 hours
[10] = pH 7.4, sigma papain 0.093 mg/ml for 24 hours
[11] = pH 8.0, sigma papain 0.093 mg/ml for 24 hours
[12] = TEAB, pretreated with papain 0.010 mg/0.108 ml (0.093 mg/ml)
[13] = TEAB, pretreated with papain 0.170 mg/0.602 ml (0.278 mg/ml)
[14] = TEAB, pretreated with papain 0.170 mg/0.200 ml ([…])

Molecule: CCCCCCCC/C=C\CCCCCCCCO [10% oleyl alcohol, oleyl alcohol]
- J (flux) [1]: 1.49 × 10^-4 mg cm^-2 s^-1

Molecule: CC(=O)OCC[N+](C)(C)C.[Cl-] [Acetylcholine Chloride, acetylcholine chloride]
- J (flux) ([2]; pH 5.9): 5.83 × 10^-6 mg/cm^2 /sec
- J (flux) ([2]; pH 6.6): 5.21 × 10^-6 mg/cm^2 /sec
- J (flux) ([2]; pH 7.4): 6.41 × 10^-6 mg/cm^2 /sec
- J (flux) ([2]; pH 8.0): 9.32 × 10^-6 mg/cm^2 /sec
- E (enhancement) [3, 8]: 103.09
- J (flux) [3, 8]: 6.00 × 10^-4 mg/cm^2 /sec
- P (permeability) [3, 8]: 3e-06 cm/s
- E (enhancement) [3, 9]: 149.23
- J (flux) [3, 9]: 7.77 × 10^-4 mg/cm^2 /sec
- P (permeability) [3, 9]: 3.88e-06 cm/s
- E (enhancement) [3, 10]: 100.94
- J (flux) [3, 10]: 6.46 × 10^-4 mg/cm^2 /sec
- P (permeability) [3, 10]: 3.23e-06 cm/s
- E (enhancement) [3, 11]: 67.38
- J (flux) [3, 11]: 6.28 × 10^-4 mg/cm^2 /sec
- P (permeability) [3, 11]: 3.14e-06 cm/s

Molecule: C=CCc1ccccc1OCC(O)CNC(C)C (stereo not shown) [Alprenolol]
- P (permeability) ([2]; pH 5.9): 5.36e-08 cm/s
- P (permeability) ([2]; pH 7.4): 1.84e-07 cm/s
- P (permeability) ([2]; pH 8): 2.1e-07 cm/s
- J (flux) ([2]; pH 5.9): 5.36 × 10^-7 mg/cm^2 /sec
- J (flux) ([2]; pH 6.6): 7.74 × 10^-7 mg/cm^2 /sec
- J (flux) ([2]; pH 7.4): 1.84 × 10^-6 mg/cm^2 /sec
- J (flux) ([2]; pH 8): 2.10 × 10^-6 mg/cm^2 /sec
- P (permeability) ([3]; mouse, pH 5.9): 1.2e-06 cm/s
- P (permeability) ([3]; mouse, pH 6.6): 1.33e-06 cm/s
- P (permeability) ([3]; mouse, pH 7.4): 1.32e-06 cm/s
- P (permeability) ([3]; mouse, pH 8): 1.65e-06 cm/s
- E (enhancement) [3, 8]: 22.39
- E (enhancement) [3, 9]: 17.18
- E (enhancement) [3, 10]: 7.17
- E (enhancement) [3, 11]: 7.86

Molecule: CCCCCCCCCCCCN1CCCCCC1=O [Azone, 1-n-dodecylazacycloheptan-2-one]
- Absorbance in protein areas, peak position ([4]; untreated SC 1244): 1244.5 cm⁻¹
- Absorbance in protein areas, peak position ([4]; untreated SC 1267): 1267.4 cm⁻¹
- Absorbance in protein areas, peak position ([4]; untreated SC 1295): 1296.6 cm⁻¹
- Absorbance in protein areas, peak position ([4]; untreated SC 1400.5): 1402 cm⁻¹
- Absorbance in protein areas, peak position ([4]; untreated SC 1456): 1461.8 cm⁻¹
- Absorbance in lipid areas, symmetric CH peak position ([4]; Table II, untreated 2848.3): 2850 cm⁻¹
- Absorbance in lipid areas, asymmetric CH peak position ([4]; Table II, untreated 2916.5): 2920 cm⁻¹
- Length of the 70% line, symmetric CH ([4]; Table III, untreated 8.6): 11.4 cm⁻¹
- Length of the 70% line, asymmetric CH ([4]; Table III, untreated 17.5): 27.2 cm⁻¹
- Asymm CH ([4]; Table VII, exposed SC): 2916.5 cm⁻¹
- Symm CH ([4]; Table VII, exposed SC): 2848.3 cm⁻¹
- Symm 70% line ([4]; Table VII, normal SC 8.6): 11.4 cm⁻¹
- Asymm 70% line ([4]; Table VII, normal SC 17.5): 27.2 cm⁻¹
- change in lipid structure / CH stretch bands of stratum corneum ([4]; in words, listed as Azone™): lengthening of both symmetric and asymmetric CH stretch lines but did not change their peak positions and 70% line lengthened
- change in protein FTIR areas of stratum corneum ([4]; in words, listed as Azone™): did not change protein FTIR areas; also recorded: did not significantly effect the protein
- change in protein FTIR areas of stratum corneum ([4]; in words, listed as azone): No significant changes occurred in the protein areas

Molecule: CC(=O)[C@H]1CC[C@H]2[C@@H]3CCC4=CC(=O)CC[C@]4(C)[C@H]3CC[C@]12C [Progesterone]
- J (flux) ([2]; pH 5.9): 2.30 × 10^-7 mg/cm^2 /sec
- J (flux) ([2]; pH 6.6): 2.34 × 10^-7 mg/cm^2 /sec
- J (flux) ([2]; pH 7.4): 2.34 × 10^-7 mg/cm^2 /sec and 2.92 × 10^-6 mg/cm^2 /sec
- J (flux) ([2]; pH 8.0): 3.09 × 10^-6 mg/cm^2 /sec
- E (enhancement) [3, 8]: 1.25
- J (flux) [3, 8]: 2.88 × 10^-7 mg/cm^2 /sec
- E (enhancement) [3, 9]: 1.50
- J (flux) [3, 9]: 3.51 × 10^-7 mg/cm^2 /sec
- E (enhancement) [3, 10]: 1.17
- J (flux) [3, 10]: 2.73 × 10^-7 mg/cm^2 /sec
- E (enhancement) [3, 11]: 1.17
- P (permeability) [3, 11]: 2.89e-07 cm/s and 3.61e-06 cm/s

Molecule: CC[N+](CC)(CC)CC.[Br-] [TEAB, tetraethylammonium bromide]
- Papp [5]: 0.00495 ×10⁻⁶ cm/s
- P (permeability) (mouse): 2.54e-08 cm/s

Molecule: carbonic anhydrase: Carbonic anhydrase, MW 29,000
- fragmentation of diffused polypeptide [6]: fractionated during the permeation process
- breakdown of molecule on exposure to papain treated skin without diffusion ([6]; donor solution of the diffusion cell): no change or breakdown of the molecule

Molecule: dioxolane [2% dioxolane]
- P (permeability) [7]: 5.21e-09 cm/s

Molecule: insulin: Insulin (Regular, Bovine), MW 6,000
- fragmentation of diffused polypeptide [6]: determination of molecular fragmentation due to the permeation would be very difficult if not impossible

Molecule: lysozyme: Lysozyme, MW 14,400
- fragmentation of diffused polypeptide [6]: no significant difference in molecular size. The molecule remained intact and did not break apart

B1: Sigma papain: papain from Sigma Chemical (protein, UniProt P00784 134-345, looked up)
Papain: IPEYVDWRQKGAVTPVKNQGSCGSCWAFSAVVTIEGIIKIRTGNLNEYSEQELLDCDRRSYGCNGGYPWSALQLVAQYGIHYRNTYPYEGVQRYCRSREKGPYAAKTDGVRQVQPYNEGALLYSIANQPVSVVLEAAGKDFQLYRGGIFVGPCGNKVDHAVAAVGYGPNYILIKNSWGTGWGENGYIRIKRGTGNSYGVCGLYTSSFYPVKN
- J (flux) [12]: 6.87 × 10^-4 mg/cm^2 /sec
- P (permeability) [12]: 8.5e-07 cm/s
- J (flux) [13]: 1.46 × 10^-3 mg/cm^2 /sec
- P (permeability) [13]: 1.81e-06 cm/s

B2: Allergan papain: papain contained in a contact lens cleaning product (tablets for dissolution in water) wherein activators are included (protein, UniProt P00784 134-345, looked up)
Papain: B1 Papain
modifications: contact lens cleaning tablet with activators
- J (flux) [14]: 1.04 × 10^-3 mg/cm^2 /sec
- P (permeability) [14]: 1.29e-06 cm/s
